# Measured values from patent publication US8536132B2, “Lymphatic zip codes in tumors and pre-malignant lesions” (Sanford-Burnham Medical Research Institute, priority 2006, dated 2013).
# Entries after “also recorded” stand apart in the source; their conditions may differ. Marks after values point to notes of the source that are not given here. Ends that are not written are not given here. * marks the point of attachment. FITC = O=C1OC2(c3ccc(O)cc3Oc3cc(O)ccc32)c2ccc(NC(=S)*)cc21
# Assays:
# [1] = tested on: C8161 xenografts; assay: In vivo phage homing to C8161 xenograft tumors; parameters: species or system mouse; conditions: for phage homing to C8161 tumors (in words): i.v. injected phage, C8161 xenograft mice
# Method: (§1) The following cell lines were maintained in DMEM supplemented with 10% FCS: C8161 human melanoma, MDA-MB-435 human breast cancer, KRIB human osteosarcoma, and human prostate cancer cells PPC1, DU145. LNCaP human prostate cancer cell line was grown in RPMI 1640 medium with 10 mM HEPES, 1 mM sodium pyruvate and 1.5 g/L sodium bicarbonate supplemented with 10% FCS. M12 human prostate cancer cell line was cultured in RPMI 1640 with 5 μg/ml insulin-transferrin-sodium selenite (ITS), 2.5 μg/ml fungizone, 50 μg/ml gentamycin, 0.2 μM dexamethasone, 10 ng/ml epidermal growth factor (EGF), and 5% FCS (Bae et al., 1998). To produce tumors, nude BALB/c and C56BL/6 mice were subcutaneously (C8161, KRIB, and PPC1) or orthotopically ([…], PPC1, DU145, M12, and LNCaP) injected with 1×10^6 tumor cells. Transgenic mouse tumor models included TRAMP prostate cancer, MMTV-PyMT breast cancer, and K14-HPV16 cervical cancer. To initiate cervical carcinogenesis, female K14-HPV16 mice (Arbeit et al., 1994) were treated with 17β-estradiol (E2; (Arbeit et al., 1996; Giraudo et al., 2004). Briefly, one-month-old virgin female transgenic (heterozygous K14-HPV16, 1203#1) and nontransgenic (FVB/n) mice were anesthetized with isoflurane, and continuous release pellets that deliver E2 at doses of 0.05 mg over 60 days (Innovative Research of America, Sarasota, Fla., USA) were implanted subcutaneously in the dorsal back skin. Subsequent pellets were implanted at 3 and 5 months of age for a total of 6 months of hormone treatment. K14-HPV16 mice were maintained in the FVB/n background (FVB/n; The Jackson Laboratory). The mice were maintained in accordance with the University of California, San Francisco (UCSF) institutional guidelines governing the care of laboratory mice. The animal experimentation was approved by Animal Research Committees at UCSF or The Burnham Institute.
# (§2) In vivo homing specificity of phage was tested as described (Hoffman, 2004). Briefly, mice bearing tumors were anesthetized and intravenously injected with 5×10^9 pfu of phage. After 7 min, the mice were perfused through the heart with PBS containing 0.5% BSA. The tumor and control organs were dissected from each mouse and the phage were rescued and tittered. For histology analysis, the mice were perfused with 4% PFA 30 min after the injection of phage. Tissues were embedded in Tissue-Tek O.C.T. and 5 μm sections were prepared for phage immunostaining.
# [2] = tested on: KRIB xenografts; assay: In vivo phage homing to KRIB xenografts; parameters: species or system mouse; conditions: for phage homing to KRIB xenografts (in words): i.v. injected phage
# Method: as §1, §2
# [3] = tested on: K14-HPV16 skin cancer; assay: In vivo homing to K14-HPV16 skin cancer; parameters: species or system mouse
# Method: as §1, §2
# [4] = tested on: MDA-MB-435 orthotopic xenografts; assay: In vivo phage homing to MDA-MB-435 orthotopic xenografts; parameters: species or system mouse
# Method: as §1, §2
# [5] = tested on: MMTV-PyMT breast tumors; assay: In vivo phage homing to MMTV-PyMT breast tumors; parameters: species or system mouse
# Method: as §1, §2
# [6] = tested on: PPC1 orthotopic xenografts; assay: In vivo phage homing to PPC1 orthotopic xenografts; parameters: species or system mouse
# Method: as §1, §2
# [7] = tested on: TRAMP prostate tumors; assay: In vivo phage homing to TRAMP prostate tumors; parameters: species or system mouse
# Method: as §1, §2
# [8] = tested on: cell suspensions prepared from C8161 tumors; assay: Phage binding to cell suspensions prepared from C8161 tumors; format: cell-based, mouse; conditions: phage clone, ex vivo
# [9] = tested on: C8161 tumors; assay: Tissue distribution of fluorescein-conjugated LSD peptide in C8161 tumor mice; format: in vivo, mouse; parameters: fluorescence in all other tissues except tumors: dose or concentration left out as unconfirmed; conditions: for fluorescent peptide in C8161 tumors and control organs: fluorescein-conjugate peptide i.v., 2 hrs circulation
# Method: (§3) The frozen sections were prepared for immunohistological analysis.
# [10] = tested on: KRIB tumors; assay: Fluorescein-labeled LSD peptide homing to KRIB tumors; format: in vivo, mouse; conditions: fluorescein-labeled peptide i.v.
# Method: as §3
# [11] = target: T1, CXCR4 (Homo sapiens, UniProt P61073); assay: Phage binding to CXCR4-transfected 293T cells
# T1 construct: expressed in transfected cells; host or cells: 293T cells, transient transfection with FuGene 6
# T1 sequence (P61073 whole entry, species assumed): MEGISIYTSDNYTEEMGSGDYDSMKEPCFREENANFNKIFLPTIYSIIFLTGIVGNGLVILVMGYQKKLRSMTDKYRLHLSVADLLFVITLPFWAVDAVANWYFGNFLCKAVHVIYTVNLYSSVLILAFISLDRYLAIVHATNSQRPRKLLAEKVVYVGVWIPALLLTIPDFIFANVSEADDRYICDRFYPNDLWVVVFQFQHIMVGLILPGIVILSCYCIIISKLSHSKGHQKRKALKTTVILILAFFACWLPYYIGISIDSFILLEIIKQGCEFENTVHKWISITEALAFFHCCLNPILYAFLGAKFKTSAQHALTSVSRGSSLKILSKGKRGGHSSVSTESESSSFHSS
# Method: The 293T cells were transfected with plasmids encoding CXCR4 (Helbig et al., 2003) or VEGFR2 (Borges et al., 2000) using FuGene 6 transfection reagent (Roche Diagnostics, Indianapolis, Ind.). Briefly, plasmid (10 μg) was mixed with 900 μl of serumfree DMEM and 50 μl of FuGene and incubated for 15 min at room temperature before adding the mixture to the cells. The cells were detached using EDTA after 48 hrs post transfection and washed with PBS containing 1% BSA. Phage (5×10^9 pfu) were incubated with the transfected cells and bound phage were rescued and titrated. For competitive binding assay, the cognate peptide (150 μg/ml) or antibody (50 μg/ml) was added during incubating of the phage with cells. Targeted proapoptotic peptide treatment of tumor-bearing mice Prostate cancer model. Orthotopic xenografted prostate tumors were established by injecting 1×10^6 PPC1 human prostate cancer cells into the mouse prostate. Fifteen days post inoculation, the mice were intravenously injected with D(KLAKLAK)2-CREAGRKAC (SEQ ID NO:41), an equimolar mixture of D(KLAKLAK)2 (SEQ ID NO:19) and CREAGRKAC (SEQ ID NO:6), or PBS. Biweekly injections of 100 μg/dose/mouse were given for three weeks. Melanoma model. Nude BALB/c mice were subcutaneously injected with 1×10^6 C8161 human melanoma cells. Treatment started when mean tumor volumes reached about 100 mm3. Mice with size-matched tumors were randomized into three groups. The therapeutic group received a chimera of tumor homing peptide with the proapoptotic motif (D(KLAKLAK)2-CLSDCGKRKC; SEQ ID NO:42). The control groups received an equimolar mixture of CLSDGKRKC (SEQ ID NO:4) and D(KLAKLAK)2 (SEQ ID NO:19), or PBS alone. The tumor-bearing mice were intravenously injected with 200 μg/dose/mouse once a week for three weeks. The mice were monitored for weight loss, and tumors were dissected and weighed at the termination of the experiment. Histological analysis was performed to evaluate the density of tumor lymphatics and blood vessels. The animal experiments reported here were approved by The Burnham Institute Animal Research Committee.
# [12] = target: T2, VEGFR2 (Homo sapiens, UniProt P35968); assay: Phage binding to VEGFR2-transfected 293T cells
# T2 construct: expressed in transfected cells; host or cells: 293T cells, transient transfection with FuGene 6
# T2 sequence (P35968 20-1356, species assumed): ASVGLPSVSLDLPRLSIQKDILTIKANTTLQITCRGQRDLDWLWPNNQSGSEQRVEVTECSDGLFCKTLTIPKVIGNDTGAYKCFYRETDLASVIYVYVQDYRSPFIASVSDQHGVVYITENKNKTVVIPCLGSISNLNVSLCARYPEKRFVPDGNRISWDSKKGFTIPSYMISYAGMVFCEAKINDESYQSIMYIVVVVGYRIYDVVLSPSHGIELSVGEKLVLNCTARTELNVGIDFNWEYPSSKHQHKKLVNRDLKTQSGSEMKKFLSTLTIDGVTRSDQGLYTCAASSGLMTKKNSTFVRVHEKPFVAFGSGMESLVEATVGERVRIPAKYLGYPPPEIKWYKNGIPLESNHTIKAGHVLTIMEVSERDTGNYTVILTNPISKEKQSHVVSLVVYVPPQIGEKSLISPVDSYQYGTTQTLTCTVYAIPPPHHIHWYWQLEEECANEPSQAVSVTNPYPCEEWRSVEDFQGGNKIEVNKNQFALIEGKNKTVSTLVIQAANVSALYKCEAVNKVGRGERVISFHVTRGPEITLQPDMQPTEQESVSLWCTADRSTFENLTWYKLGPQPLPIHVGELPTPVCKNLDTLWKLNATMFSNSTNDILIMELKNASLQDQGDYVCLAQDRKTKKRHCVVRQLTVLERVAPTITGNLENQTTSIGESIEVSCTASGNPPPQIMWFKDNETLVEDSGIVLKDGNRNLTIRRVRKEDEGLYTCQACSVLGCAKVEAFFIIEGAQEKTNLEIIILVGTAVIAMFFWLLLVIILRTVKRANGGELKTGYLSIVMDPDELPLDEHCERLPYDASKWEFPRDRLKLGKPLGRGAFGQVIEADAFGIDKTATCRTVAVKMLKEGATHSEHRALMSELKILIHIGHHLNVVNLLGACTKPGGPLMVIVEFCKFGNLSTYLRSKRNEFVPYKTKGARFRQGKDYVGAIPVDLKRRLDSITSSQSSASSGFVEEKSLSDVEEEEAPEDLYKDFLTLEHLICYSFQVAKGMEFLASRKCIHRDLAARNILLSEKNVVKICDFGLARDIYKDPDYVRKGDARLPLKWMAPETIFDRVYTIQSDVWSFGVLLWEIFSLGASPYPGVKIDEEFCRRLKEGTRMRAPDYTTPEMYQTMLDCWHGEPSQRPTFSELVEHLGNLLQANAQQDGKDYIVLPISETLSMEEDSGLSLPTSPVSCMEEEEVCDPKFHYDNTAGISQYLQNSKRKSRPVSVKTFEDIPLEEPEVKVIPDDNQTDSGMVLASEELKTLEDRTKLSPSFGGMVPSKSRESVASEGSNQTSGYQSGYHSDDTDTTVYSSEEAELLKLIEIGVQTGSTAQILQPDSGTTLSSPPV
# Method: The 293T cells were transfected with plasmids encoding CXCR4 (Helbig et al., 2003) or VEGFR2 (Borges et al., 2000) using FuGene 6 transfection reagent (Roche Diagnostics, Indianapolis, Ind.). Briefly, plasmid (10 μg) was mixed with 900 μl of serumfree DMEM and 50 μl of FuGene and incubated for 15 min at room temperature before adding the mixture to the cells. The cells were detached using EDTA after 48 hrs post transfection and washed with PBS containing 1% BSA. Phage (5×10^9 pfu) were incubated with the transfected cells and bound phage were rescued and titrated. For competitive binding assay, the cognate peptide (150 μg/ml) or antibody (50 μg/ml) was added during incubating of the phage with cells. Targeted proapoptotic peptide treatment of tumor-bearing mice Prostate cancer model. Orthotopic xenografted prostate tumors were established by injecting 1×10^6 PPC1 human prostate cancer cells into the mouse prostate. Fifteen days post inoculation, the mice were intravenously injected with D(KLAKLAK)2-CREAGRKAC (SEQ ID NO:41), an equimolar mixture of D(KLAKLAK)2 (SEQ ID NO:19) and CREAGRKAC (SEQ ID NO:6), or PBS. Biweekly injections of 100 μg/dose/mouse were given for three weeks. Melanoma model. […] The mice were monitored for weight loss, and tumors were dissected and weighed at the termination of the experiment. […]
# [13] = tested on: the other tumors, including the skin cancers; assay: Fluorescein-labeled LSD peptide homing to other tumors; format: in vivo, mouse; conditions: fluorescein-labeled peptide i.v.
# Method: as §3
# [14] = tested on: K14-HPV16/E2 cervical lesions; assay: Distribution of fluorescent peptides in K14-HPV16/E2 mice with cervical lesions; format: in vivo, mouse; conditions: labeled peptide i.v.
# Method: as §3
# [15] = tested on: PPC1, M12, DU145, and LNCaP orthotopic xenografts; assay: Fluorescein-conjugated REA peptide homing to orthotopic human prostate cancer xenografts; format: in vivo, mouse
# Method: Custom immunization to produce a rabbit antiserum against mouse Prox-1 was performed by Proteintech Inc. New Zealand White rabbits were immunized with a fusion protein of GST-C-terminal fragment of Prox-1 protein. The antibody was affinity purified on the fusion protein and absorbed with GST. […] Antibodies against the lymphatic markers anti-LYVE-1 (Laakkonen et al., 2002) and anti-podoplanin (kindly provided by T. Petrova and K. Alitalo), rat monoclonal anti-mouse CD31 (BD Pharmingen), rat anti-mouse MECA-32 (Pharmingen), rabbit polyclonal anti-T7 phage, and rat anti-mouse VEGFR3 were used for immunohistochemical staining of frozen tissue sections as described (Joyce et al., 2003; Laakkonen et al., 2002). The corresponding secondary antibodies were added and incubated for 1 hr at room temperature: AlexaFluor-488 goat anti-rat or rabbit IgG (1:1000; Molecular Probes, Eugene, Oreg.), AlexaFluor-594 goat anti-rat or rabbit IgG (1:1000, Molecular Probes), AlexaFluor-594 donkey anti-mouse or goat IgG (1:1000, Molecular Probes), and AlexaFluor-488 donkey anti-mouse or goat IgG (1:1000; Molecular Probes), respectively. The slides were washed three times with PBS and mounted in Vectashield Mounting Medium with DAPI (Vector Laboratories, Burlingame, Calif.). […]
# [16] = phage homing in vivo, C8161 (s.c.) xenografts
# [17] = phage homing in vivo, KRIB xenografts
# [18] = phage homing in vivo, K14-HPV16 skin cancer
# [19] = phage homing in vivo, MDA-MB-435 orthotopic xenografts
# [20] = phage homing in vivo, MMTV-PyMT breast tumors
# [21] = phage homing in vivo, PPC1 orthotopic xenografts
# [22] = phage homing in vivo, TRAMP prostate tumors
# [23] = fluorescein-conjugate peptide, C8161 tumor sections
substance,measurement,setting,value
CLSDGKRKC [homing peptide for C8161 melanoma lymphatics],phage homing to C8161 tumors (in words),[1],Robust phage homing
same,phage homing to C8161 tumors (in words),[1]; listed as CLSDGKRKC,homed selectively to the tumors
same,phage homing to C8161 tumors (in words),[1]; listed as LSD phage,significantly higher than in normal tissues
same,relative efficiency of tumor homing of the two phage,"[1]; i.v. injection, nude mice bearing C8161 tumors",about twice as efficient as CLDGGRPKC
same,Fold over control phage,[1]; [16],39 fold
same,Specific Homing,[1]; [16],Yes
same,phage homing to KRIB xenografts (in words),[2],slightly positive
same,phage homing to KRIB xenografts (in words),[2]; listed as LSD phage,possible low-level homing
same,Fold over control phage,[2]; [17],7^‡ fold
same,Specific Homing,[2]; [17],Yes
same,homing to K14-HPV16 skin cancers (in words),"[3]; i.v. injection, K14-HPV16 mice",possible low-level homing
same,Fold over control phage,[3]; [18],5 fold
same,Specific Homing,[3]; [18],No
same,phage homing to MDA-MB-435 tumors (in words),"[4]; i.v. injected phage, listed as LSD phage",did not appreciably home
same,Fold over control phage,[4]; [19],3 fold
same,Specific Homing,[4]; [19],No
same,phage homing to MMTV-PyMT breast tumors (in words),[5]; i.v. injected phage,did not appreciably home
same,Fold over control phage,[5]; [20],3 fold
same,Specific Homing,[5]; [20],No
same,phage homing to PPC1 orthotopic xenografts (in words),[6]; i.v. injected phage,did not appreciably home
same,Fold over control phage,[6]; [21],3 fold
same,Specific Homing,[6]; [21],No
same,phage homing to TRAMP prostate tumors (in words),[7]; i.v. injected phage,did not appreciably home
same,Fold over control phage,[7]; [22],1 fold
same,Specific Homing,[7]; [22],No
same,binding to C8161 tumor cell suspensions relative to control phage,[8],100 fold
same,binding to cell suspensions prepared from C8161 tumors (in words),[8],bound to cell suspensions prepared from C8161 tumors
same,fluorescent peptide in C8161 tumors and control organs,[9],"detected within the tumors, but not in control organs"
same,co-localization with blood vessel markers MECA-32 and CD31,[9]; [23],no co-localization
same,"co-localization with lymphatic vessel markers podoplanin, Prox-1, LYVE-1, VEGFR3",[9]; [23],co-localization of the LSD fluorescence with them
same,lymphatic vessels positive for the peptide that were also positive for podoplanin,"[9]; fluorescein-conjugate peptide, C8161 tumors",85%
same,fluorescent peptide homing to KRIB tumors (in words),[10],slightly positive
same,phage binding to CXCR4-transfected 293T cells (in words),[11]; 293T cells,binds to 293T cells transfected with CXCR4
same,phage binding to CXCR4-transfected 293T cells versus mock- or VEGFR2-transfected cells,[11]; 293T cells,16 fold
same,inhibition of LSD phage binding to CXCR4-transfected 293T cells,"[11]; peptide 150 μg/ml co-incubated with phage, listed as LSD peptide",inhibits LSD-phage binding; also recorded: inhibited the binding
same,phage binding to VEGFR2-transfected 293T cells (in words),[12],not to cells transfected with VEGFR2
FITC-LSD: fluorescein-conjugated LSD peptide (CLSDGKRKC) ({FITC}-CLSDGKRKC; cysteine pairing not given here),fluorescence in kidneys,"[9]; FITC-LSD (150 mg) i.v., 2 hrs",A few spots of LSD fluorescence
same,fluorescence in all other tissues except tumors,"[9]; FITC-LSD i.v., 2 hrs",negative
same,fluorescent peptide in C8161 tumors and control organs,[9],Strong LSD peptide fluorescence
same,fluorescent peptide homing to KRIB tumors (in words),[10],weakly positive
same,"fluorescent peptide homing to the other tumors, including skin cancers",[13],negative
"FITC-REA: fluorescein-labeled REA peptide (CREAGRKAC) (not fully specified (N-terminus); cysteine pairing not given here; also: FITC label, position not given here)",fluorescent peptide in K14-HPV16/E2 cervical lesions/tumors (in words),[14],homed to a lesser extent
same,"fluorescent peptide in PPC1, M12, DU145, LNCaP orthotopic xenografts",[15]; fluorescein-conjugated peptide,positive
same,co-localization with lymphatic vessels in orthotopic prostate tumor xenografts,[15]; immunohistochemical analysis,co-localized with lymphatic vessels
